{"source": "patent US4897402A", "about": "“5-oxa, 5-thia, 5-aza HmG-CoA reductase inhibitors” (Merck & Co., Inc., priority 1988, dated 1990)", "molecular_target": "T1, HMG-CoA reductase (Rattus norvegicus, UniProt P51639)", "T1 sequence (P51639 1-887)": "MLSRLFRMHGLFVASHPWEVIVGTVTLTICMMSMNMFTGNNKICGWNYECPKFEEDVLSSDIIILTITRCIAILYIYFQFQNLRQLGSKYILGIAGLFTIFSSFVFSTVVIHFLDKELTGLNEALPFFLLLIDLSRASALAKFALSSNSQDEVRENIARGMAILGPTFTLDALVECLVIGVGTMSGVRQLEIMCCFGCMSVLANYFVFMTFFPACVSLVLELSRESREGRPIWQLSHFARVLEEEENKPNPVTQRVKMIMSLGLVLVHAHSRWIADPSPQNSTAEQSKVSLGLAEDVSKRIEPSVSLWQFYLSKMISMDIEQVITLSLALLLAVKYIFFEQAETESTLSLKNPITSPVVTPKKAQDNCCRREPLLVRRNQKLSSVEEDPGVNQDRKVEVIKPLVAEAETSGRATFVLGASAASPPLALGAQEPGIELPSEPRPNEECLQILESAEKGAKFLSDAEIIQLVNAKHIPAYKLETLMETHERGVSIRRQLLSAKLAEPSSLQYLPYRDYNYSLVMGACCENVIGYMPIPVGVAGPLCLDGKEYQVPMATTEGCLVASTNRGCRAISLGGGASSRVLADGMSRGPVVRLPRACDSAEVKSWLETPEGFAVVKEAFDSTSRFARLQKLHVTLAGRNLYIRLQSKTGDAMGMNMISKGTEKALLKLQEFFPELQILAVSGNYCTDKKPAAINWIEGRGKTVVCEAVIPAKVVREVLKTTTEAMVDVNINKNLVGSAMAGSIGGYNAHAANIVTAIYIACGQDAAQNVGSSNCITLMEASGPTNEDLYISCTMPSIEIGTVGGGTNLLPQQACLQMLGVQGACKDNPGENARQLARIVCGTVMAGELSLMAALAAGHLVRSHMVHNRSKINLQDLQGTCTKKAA", "assay": "intrinsic HMG-CoA reductase inhibition, in vitro protocol of J. Med. Chem., 28, p. 347-358 (1985)", "assay_type": "biochemical", "conditions": "IC50 of test compound compared with that of compactin (mevastatin) determined simultaneously; compactin assigned a value of 100", "protocol": "The intrinsic HMG--CoA reductase inhibition activity of the claimed compounds is measured in the in vitro protocol published in J. Med. Chem., 28, p. 347-358 (1985).\nFor estimation of relative inhibitory potencies, compactin (i.e., mevastatin) was assigned a value of 100 and the IC50 value of the test compound was compared with that of compactin determined simultaneously in the published in vitro protocol.\nRepresentative of the intrinsic HMG-CoA reductase inhibitory activities of the claimed compounds are the following potencies.", "data": [{"smiles": "CCC(C)(C)C(=O)O[C@H]1CC(C)(C)O[C@@H]2CC[C@H](C)[C@H](CC[C@@H]3C[C@@H](O)CC(=O)O3)[C@@H]12", "note": "[Compound 9, 6(R) [2-[8(S)-(2,2-dimethylbutyryloxy)-2(S)-methyl-5-oxa-6,6-dimethyl-1,2,3,4,4a(R),7,8,8a(R)-octahydronaphthyl-1(S)]ethyl]-4(R)-hydroxy-3,4,5,6-tetrahydro-2H-pyran-2-one]", "values": [{"measurement": "Relative Potency", "result": 96}]}, {"smiles": "CCC(C)(C)C(=O)O[C@H]1C[C@@](C)(CSc2ccccc2)O[C@@H]2CC[C@H](C)[C@H](CC[C@@H]3C[C@@H](O)CC(=O)O3)[C@@H]12", "note": "[Compound 10, 6(R)-[2-[8(S)-(2,2-dimethylbutyryloxy)-2(S)-methyl-5-oxa-6(S)-(phenylthiomethyl, methyl)-1,2,3,4,4a(R),7,8,8a(R)-octahydronaphthyl-1(S)]ethyl]4(R)-hydroxy 3,4,5,6-tetrahydro-2H-pyran-2-one]", "values": [{"measurement": "Relative Potency", "result": 258}]}, {"smiles": "CCC(C)(C)C(=O)O[C@H]1C[C@](C)(CSc2ccccc2)O[C@@H]2CC[C@H](C)[C@H](CC[C@@H]3C[C@@H](O)CC(=O)O3)[C@@H]12", "note": "[Compound 11, 6(R)-[2-[8(S)-(2,2-dimethylbutyryloxy)-2(S)-methyl-5-oxa-6(R)-(phenylthiomethyl, methyl)-1,2,3,4,4a(R),7,-8,8a(R)-octahydronaphthyl-1(S)]ethyl]-4-(R)-hydroxy 3,4,5,6-tetrahydro-2H-pyran-2-one]", "values": [{"measurement": "Relative Potency", "result": 280}]}]}
